Measured values as given in ChEMBL document CHEMBL1201861, “Genomics of Drug Sensitity in Cancer screening data, Wellcome Trust Sanger Institute”.
Where a name gives a salt, the structure may show the parent alone.

Columns and labels:
Assay in all cases: cells
Type in all cases: functional, cell-based, Homo sapiens
KMS-12-PE = conditions: Homo sapiens, KMS-12-PE
Description: SANGER: Inhibition of human KMS-12-PE cell growth in a cell viability assay.

SIG-M5 = conditions: Homo sapiens, SIG-M5
Description: SANGER: Inhibition of human SIG-M5 cell growth in a cell viability assay.

SNU-16 = conditions: Homo sapiens, SNU-16
Description: SANGER: Inhibition of human NCI-SNU-16 cell growth in a cell viability assay.

NB7 = conditions: Homo sapiens, NB7
Description: SANGER: Inhibition of human NB7 cell growth in a cell viability assay.

EHEB = conditions: Homo sapiens, EHEB
Description: SANGER: Inhibition of human EHEB cell growth in a cell viability assay.

NB1 = conditions: Homo sapiens, NB1
Description: SANGER: Inhibition of human NB1 cell growth in a cell viability assay.

NCI-H2081 = conditions: Homo sapiens, NCI-H2081
Description: SANGER: Inhibition of human NCI-H2081 cell growth in a cell viability assay.

LU-165 = conditions: Homo sapiens, LU-165
Description: SANGER: Inhibition of human LU-165 cell growth in a cell viability assay.

NB14 = conditions: Homo sapiens, NB14
Description: SANGER: Inhibition of human NB14 cell growth in a cell viability assay.

MOLT-13 = conditions: Homo sapiens, MOLT-13
Description: SANGER: Inhibition of human MOLT-13 cell growth in a cell viability assay.

BC-3 = conditions: Homo sapiens, BC-3
Description: SANGER: Inhibition of human BC-3 cell growth in a cell viability assay.

NCI-H889 = conditions: Homo sapiens, NCI-H889
Description: SANGER: Inhibition of human NCI-H889 cell growth in a cell viability assay.

NCI-H2196 = conditions: Homo sapiens, NCI-H2196
Description: SANGER: Inhibition of human NCI-H2196 cell growth in a cell viability assay.

MHH-ES-1 = conditions: Homo sapiens, MHH-ES-1
Description: SANGER: Inhibition of human MHH-ES-1 cell growth in a cell viability assay.

Capan-2 = conditions: Homo sapiens, Capan-2
Description: SANGER: Inhibition of human Capan-2 cell growth in a cell viability assay.

HLE = conditions: Homo sapiens, HLE
Description: SANGER: Inhibition of human HLE cell growth in a cell viability assay.

BT-549 = conditions: Homo sapiens, BT-549
Description: SANGER: Inhibition of human BT-549 cell growth in a cell viability assay.

CAL-27 = conditions: Homo sapiens, CAL-27
Description: SANGER: Inhibition of human CAL-27 cell growth in a cell viability assay.

GP5d = conditions: Homo sapiens, GP5d
Description: SANGER: Inhibition of human GP5d cell growth in a cell viability assay.

KYSE-410 = conditions: Homo sapiens, KYSE-410
Description: SANGER: Inhibition of human KYSE-410 cell growth in a cell viability assay.

LN-405 = conditions: Homo sapiens, LN-405
Description: SANGER: Inhibition of human LN-405 cell growth in a cell viability assay.

HCT-15 = conditions: Homo sapiens, HCT-15
Description: SANGER: Inhibition of human HCT-15 cell growth in a cell viability assay.

LU-99A = conditions: Homo sapiens, LU-99A
Description: SANGER: Inhibition of human LU-99A cell growth in a cell viability assay.

CAMA-1 = conditions: Homo sapiens, CAMA-1
Description: SANGER: Inhibition of human CAMA-1 cell growth in a cell viability assay.

NCI-H650 = conditions: Homo sapiens, NCI-H650
Description: SANGER: Inhibition of human NCI-H650 cell growth in a cell viability assay.

HPAF-II = conditions: Homo sapiens, HPAF-II
Description: SANGER: Inhibition of human HPAF-II cell growth in a cell viability assay.

PC-3 = conditions: Homo sapiens, PC-3
Description: SANGER: Inhibition of human PC-3 cell growth in a cell viability assay.

NCI-H2170 = conditions: Homo sapiens, NCI-H2170
Description: SANGER: Inhibition of human NCI-H2170 cell growth in a cell viability assay.

KP-N-YN = conditions: Homo sapiens, KP-N-YN
Description: SANGER: Inhibition of human KP-N-YN cell growth in a cell viability assay.

CHL-1 = conditions: Homo sapiens, CHL-1
Description: SANGER: Inhibition of human CHL-1 cell growth in a cell viability assay.

NCI-H1793 = conditions: Homo sapiens, NCI-H1793
Description: SANGER: Inhibition of human NCI-H1793 cell growth in a cell viability assay.

HCC1954 = conditions: Homo sapiens, HCC1954
Description: SANGER: Inhibition of human HCC1954 cell growth in a cell viability assay.

Hs-578T = conditions: Homo sapiens, Hs-578T
Description: SANGER: Inhibition of human Hs-578-T cell growth in a cell viability assay.

SK-MEL-24 = conditions: Homo sapiens, SK-MEL-24
Description: SANGER: Inhibition of human SK-MEL-24 cell growth in a cell viability assay.

NCI-H1703 = conditions: Homo sapiens, NCI-H1703
Description: SANGER: Inhibition of human NCI-H1703 cell growth in a cell viability assay.

P12-Ichikawa = conditions: Homo sapiens, P12-Ichikawa
RO82-W-1 = conditions: Homo sapiens, RO82-W-1
Description: SANGER: Inhibition of human RO82-W-1 cell growth in a cell viability assay.

MKN-28 = conditions: Homo sapiens, MKN-28
Description: SANGER: Inhibition of human MKN28 cell growth in a cell viability assay.

HOS = conditions: Homo sapiens, HOS
Description: SANGER: Inhibition of human HOS cell growth in a cell viability assay.

SAOS-2 = conditions: Homo sapiens, SAOS-2
Description: SANGER: Inhibition of human Saos-2 cell growth in a cell viability assay.

T47D = conditions: Homo sapiens, T47D
Description: SANGER: Inhibition of human T47D cell growth in a cell viability assay.

NCI-H2087 = conditions: Homo sapiens, NCI-H2087
Description: SANGER: Inhibition of human NCI-H2087 cell growth in a cell viability assay.

HN = conditions: Homo sapiens, HN
Description: SANGER: Inhibition of human HN cell growth in a cell viability assay.

SAS = conditions: Homo sapiens, SAS
Description: SANGER: Inhibition of human SAS cell growth in a cell viability assay.

SNU-449 = conditions: Homo sapiens, SNU-449
Description: SANGER: Inhibition of human SNU-449 cell growth in a cell viability assay.

SJRH30 = conditions: Homo sapiens, SJRH30
Description: SANGER: Inhibition of human SJRH30 cell growth in a cell viability assay.

SW1710 = conditions: Homo sapiens, SW1710
Description: SANGER: Inhibition of human SW1710 cell growth in a cell viability assay.

SW 1116 = conditions: Homo sapiens, SW 1116
Description: SANGER: Inhibition of human SW1116 cell growth in a cell viability assay.

HGC-27 = conditions: Homo sapiens, HGC-27
Description: SANGER: Inhibition of human HGC-27 cell growth in a cell viability assay.

## CC(=O)O[C@H]1C(=O)[C@@]2(C)[C@H]([C@H](OC(=O)c3ccccc3)[C@]3(O)C[C@H](OC(=O)[C@H](O)[C@@H](NC(=O)c4ccccc4)c4ccccc4)C(C)=C1C3(C)C)[C@]1(OC(C)=O)CO[C@@H]1C[C@@H]2O [PACLITAXEL]
KMS-12-PE
  IC50: > 0.102 µM
SIG-M5
  IC50: 0.00327 µM
SNU-16
  IC50: 0.0101 µM
NB7
  IC50: > 0.102 µM
EHEB
  IC50: > 0.102 µM
NB1
  IC50: 0.0269 µM
NCI-H2081
  IC50: > 0.102 µM
LU-165
  IC50: > 0.102 µM
NB14
  IC50: > 0.102 µM
MOLT-13
  IC50: 0.0164 µM
BC-3
  IC50: 0.0234 µM
NCI-H889
  IC50: 0.0559 µM
NCI-H2196
  IC50: > 0.102 µM

## COc1cc(-c2nn([C@H]3CC[C@H](N4CCN(C(C)=O)CC4)CC3)c3ncnc(N)c23)ccc1NC(=O)c1cc2ccccc2n1C
KMS-12-PE
  IC50: > 5.12 µM
SIG-M5
  IC50: > 5.12 µM
SNU-16
  IC50: > 5.12 µM
NB7
  IC50: > 5.12 µM
EHEB
  IC50: > 5.12 µM
NB1
  IC50: > 5.12 µM
NCI-H2081
  IC50: > 5.12 µM
LU-165
  IC50: > 5.12 µM
NB14
  IC50: > 5.12 µM
MOLT-13
  IC50: > 5.12 µM
BC-3
  IC50: > 5.12 µM
NCI-H889
  IC50: > 5.12 µM
NCI-H2196
  IC50: > 5.12 µM

## CS(=O)(=O)c1ccc(C(=O)Nc2ccc(Cl)c(-c3ccccn3)c2)c(Cl)c1 [VISMODEGIB]
MHH-ES-1
  IC50: > 10 µM
Capan-2
  IC50: > 10 µM
HLE
  IC50: > 10 µM
BT-549
  IC50: > 10 µM
CAL-27
  IC50: > 10 µM
GP5d
  IC50: > 10 µM
KYSE-410
  IC50: > 10 µM
LN-405
  IC50: > 10 µM
HCT-15
  IC50: > 10 µM
LU-99A
  IC50: > 10 µM
NB7
  IC50: > 10 µM
CAMA-1
  IC50: > 10 µM
NCI-H650
  IC50: > 10 µM
HPAF-II
  IC50: > 10 µM
PC-3
  IC50: > 10 µM
NCI-H2170
  IC50: > 10 µM
KP-N-YN
  IC50: > 10 µM
CHL-1
  IC50: > 10 µM
NCI-H1793
  IC50: > 10 µM
HCC1954
  IC50: > 10 µM
Hs-578T
  IC50: > 10 µM
SK-MEL-24
  IC50: > 10 µM
NB14
  IC50: > 10 µM
NCI-H1703
  IC50: > 10 µM
P12-Ichikawa
  IC50: > 10 µM
RO82-W-1
  IC50: > 10 µM
MKN-28
  IC50: > 10 µM
HOS
  IC50: > 10 µM
SAOS-2
  IC50: > 10 µM
T47D
  IC50: > 10 µM
NCI-H2087
  IC50: > 10 µM
HN
  IC50: > 10 µM
SAS
  IC50: > 10 µM
SNU-449
  IC50: > 10 µM
SJRH30
  IC50: > 10 µM
SW1710
  IC50: > 10 µM
SW 1116
  IC50: > 10 µM
HGC-27
  IC50: > 10 µM

## COc1cccc2c1C(=O)c1c(O)c3c(c(O)c1C2=O)C[C@@](O)(C(=O)CO)C[C@@H]3O[C@H]1C[C@H](N)[C@H](O)[C@H](C)O1 [DOXORUBICIN]
MHH-ES-1
  IC50: 0.0216 µM
KMS-12-PE
  IC50: 0.418 µM
Capan-2
  IC50: 0.898 µM
HLE
  IC50: 0.0358 µM
CAL-27
  IC50: 0.0326 µM
GP5d
  IC50: 0.0491 µM
KYSE-410
  IC50: 0.103 µM
LN-405
  IC50: > 1.02 µM
SIG-M5
  IC50: 0.0257 µM
HCT-15
  IC50: > 1.02 µM
SNU-16
  IC50: > 1.02 µM
LU-99A
  IC50: 0.147 µM
CAMA-1
  IC50: 0.159 µM
NCI-H650
  IC50: 0.218 µM
HPAF-II
  IC50: 0.527 µM
PC-3
  IC50: 0.957 µM
NCI-H2170
  IC50: 0.11 µM
EHEB
  IC50: 0.113 µM
KP-N-YN
  IC50: > 1.02 µM
NB1
  IC50: 0.046 µM
NCI-H2081
  IC50: 0.234 µM
CHL-1
  IC50: 0.0377 µM
NCI-H1793
  IC50: 0.901 µM
HCC1954
  IC50: 0.541 µM
Hs-578T
  IC50: > 1.02 µM
LU-165
  IC50: 0.639 µM
SK-MEL-24
  IC50: 0.914 µM
NCI-H1703
  IC50: 0.126 µM
P12-Ichikawa
  IC50: 0.0493 µM
RO82-W-1
  IC50: > 1.02 µM
BC-3
  IC50: 0.166 µM
MKN-28
  IC50: 0.0319 µM
HOS
  IC50: 0.0453 µM
SAOS-2
  IC50: 0.33 µM
T47D
  IC50: 0.47 µM
NCI-H2087
  IC50: 0.0494 µM
HN
  IC50: 0.354 µM
NCI-H889
  IC50: > 1.02 µM
SAS
  IC50: 0.114 µM
SNU-449
  IC50: 0.548 µM
SJRH30
  IC50: 0.173 µM
SW1710
  IC50: 0.0174 µM
NCI-H2196
  IC50: 0.229 µM
HGC-27
  IC50: 0.0136 µM

## CC(C)c1ccccc1Cc1cc(C(=O)Nc2ccc(S(=O)(=O)c3ccccc3C(C)(C)C)cc2)c(O)c(O)c1O
MHH-ES-1
  IC50: 0.5 µM
Capan-2
  IC50: 6.04 µM
HLE
  IC50: 0.121 µM
BT-549
  IC50: 0.68 µM
CAL-27
  IC50: 0.136 µM
GP5d
  IC50: 0.782 µM
KYSE-410
  IC50: 0.877 µM
LN-405
  IC50: 1.58 µM
HCT-15
  IC50: 0.202 µM
LU-99A
  IC50: 0.274 µM
NB7
  IC50: 0.0293 µM
CAMA-1
  IC50: 0.661 µM
NCI-H650
  IC50: 0.646 µM
HPAF-II
  IC50: 0.228 µM
PC-3
  IC50: 0.715 µM
NCI-H2170
  IC50: 1 µM
KP-N-YN
  IC50: 15.9 µM
CHL-1
  IC50: 0.0119 µM
NCI-H1793
  IC50: 0.745 µM
HCC1954
  IC50: 0.894 µM
Hs-578T
  IC50: 0.0236 µM
SK-MEL-24
  IC50: 0.41 µM
NB14
  IC50: 0.0764 µM
NCI-H1703
  IC50: 0.217 µM
RO82-W-1
  IC50: 0.398 µM
MKN-28
  IC50: 1.13 µM
HOS
  IC50: 0.0847 µM
SAOS-2
  IC50: 0.613 µM
T47D
  IC50: 0.691 µM
NCI-H2087
  IC50: 0.575 µM
HN
  IC50: 0.231 µM
SAS
  IC50: 0.0332 µM
SNU-449
  IC50: 0.372 µM
SJRH30
  IC50: 0.137 µM
SW1710
  IC50: 0.388 µM
SW 1116
  IC50: 8.45 µM
HGC-27
  IC50: 0.14 µM

## COC1=CC(c2cc3ccccc3[nH]2)=N/C1=C\c1[nH]c(C)cc1C [OBATOCLAX MESYLATE]
MHH-ES-1
  IC50: 0.186 µM
KMS-12-PE
  IC50: 5.35 µM
Capan-2
  IC50: 0.666 µM
HLE
  IC50: 0.169 µM
CAL-27
  IC50: 0.0646 µM
GP5d
  IC50: 0.225 µM
KYSE-410
  IC50: 0.098 µM
LN-405
  IC50: 1.39 µM
SIG-M5
  IC50: < 0.0625 µM
HCT-15
  IC50: 0.225 µM
SNU-16
  IC50: 13.1 µM
LU-99A
  IC50: 0.784 µM
CAMA-1
  IC50: 0.436 µM
NCI-H650
  IC50: 0.283 µM
HPAF-II
  IC50: 1.94 µM
PC-3
  IC50: 1.75 µM
NCI-H2170
  IC50: 0.683 µM
EHEB
  IC50: 0.823 µM
KP-N-YN
  IC50: > 16 µM
NB1
  IC50: 0.279 µM
NCI-H2081
  IC50: 0.781 µM
CHL-1
  IC50: 0.0486 µM
NCI-H1793
  IC50: > 16 µM
HCC1954
  IC50: 5.86 µM
Hs-578T
  IC50: 0.183 µM
LU-165
  IC50: 5.99 µM
SK-MEL-24
  IC50: 0.913 µM
NCI-H1703
  IC50: 0.594 µM
P12-Ichikawa
  IC50: 0.0735 µM
RO82-W-1
  IC50: 2.41 µM
BC-3
  IC50: 2.37 µM
MKN-28
  IC50: 0.177 µM
HOS
  IC50: 0.0347 µM
SAOS-2
  IC50: 0.246 µM
T47D
  IC50: 1.24 µM
NCI-H2087
  IC50: 0.13 µM
HN
  IC50: < 0.0625 µM
NCI-H889
  IC50: > 16 µM
SAS
  IC50: 0.273 µM
SNU-449
  IC50: 0.208 µM
SJRH30
  IC50: 0.321 µM
SW1710
  IC50: 0.0402 µM
NCI-H2196
  IC50: 3.35 µM
HGC-27
  IC50: < 0.0625 µM

## COc1cc2ncn(-c3cc(OCc4ccccc4C(F)(F)F)c(C(N)=O)s3)c2cc1OC [GW843682X]
KMS-12-PE
  IC50: > 0.256 µM
SIG-M5
  IC50: 0.021 µM
SNU-16
  IC50: 0.0205 µM
NB7
  IC50: > 0.256 µM
EHEB
  IC50: > 0.256 µM
NB1
  IC50: 0.0351 µM
NCI-H2081
  IC50: > 0.256 µM
LU-165
  IC50: > 0.256 µM
NB14
  IC50: > 0.256 µM
MOLT-13
  IC50: 0.0121 µM
BC-3
  IC50: > 0.256 µM
NCI-H889
  IC50: 0.0924 µM
NCI-H2196
  IC50: > 0.256 µM
